Numbered stars: 1 amine (or outer) side, 2 acyl side, 3 side chain; on linkers, the order of the positions; unused ones are H or OH. Bridge positions count the residues as written; N and C are the ends. Square brackets hold non-standard residues; d marks the D form. Peptide text beside a SMILES is read from it. I, II: the chains in the order shown. Actinocin(9to1) = Cc1c2oc3c(C)ccc(C(=O)[*:1])c3nc-2c(C(=O)[*:2])c(N)c1=O; NMeV = CN[C@H](C(=O)O)C(C)C; Sar = CNCC(=O)O
What was measured:
[1] = test system: E12DNA (DNA, duplex) ACACGTACGTGT; assay: NMR (HSQC chemical shift perturbation, relaxation dispersion); details: 125 mM NaCl; 15 mM sodium phosphate, 0.1 mM EDTA, pH 5.3 or 6.8, 8% D2O; slow exchange
[2] = test system: E12DNA-WC (DNA, duplex) ACACGTAT/ATACGTGT; assay: NMR (2D HSQC chemical shift perturbation); details: 125 mM NaCl; 15 mM sodium phosphate, 0.1 mM EDTA, pH 5.3 or 6.8; room temperature
[3] = test system: E12DNA-HG (DNA, duplex) ACGCACGT/ACGTGCGT; assay: NMR (2D NOESY and HSQC); details: 125 mM NaCl; 15 mM sodium phosphate, 0.1 mM EDTA, pH 5.3
[4] = test system: AcDNA (DNA, duplex) AGATATGCATATCT; assay: NMR (HSQC, NOESY, relaxation dispersion); details: 125 mM NaCl; 15 mM sodium phosphate, 0.1 mM EDTA, pH 5.3 or 6.8, 8% D2O; two orientations of the chromophore

Row | Compound | binding [1] | binding [2] | binding [3] | binding [4]
1 | CSC1SC[C@H]2C(=O)N(C)[C@@H](C(C)C)C(=O)OC[C@@H](NC(=O)c3cnc4ccccc4n3)C(=O)N[C@@H](C)C(=O)N(C)[C@@H]1C(=O)N(C)[C@@H](C(C)C)C(=O)OC[C@@H](NC(=O)c1cnc3ccccc3n1)C(=O)N[C@@H](C)C(=O)N2C (stereo partly shown) | yes | yes | yes | –
2 | Cc1c2oc3c(C)ccc(C(=O)N[C@@H]4C(=O)N[C@H](C(C)C)C(=O)N5CCC[C@H]5C(=O)N(C)CC(=O)N(C)[C@@H](C(C)C)C(=O)O[C@@H]4C)c3nc-2c(C(=O)N[C@@H]2C(=O)N[C@H](C(C)C)C(=O)N3CCC[C@H]3C(=O)N(C)CC(=O)N(C)[C@@H](C(C)C)C(=O)O[C@@H]2C)c(N)c1=O (I: T[dV]P[Sar][NMeV] / II: T[dV]P[Sar][NMeV]; ester I:1-I:C, II:1-II:C; linker I:N-II:N via Actinocin(9to1)) | – | – | – | yes

Source: publication PMC5902632 (2018)
